Experimental data taken from article PMC6480704, “Antiproliferative Aspidosperma-Type Monoterpenoid Indole Alkaloids from Bousigonia mekongensis Inhibit Tubulin Polymerization” (Molecules, 2019).
Entries after “also recorded” stand apart in the source; their conditions may differ. Where two headings read alike, the source gives them in different places.

What was measured:
[1] = test system: A549 (lung carcinoma); assay: Antiproliferative SRB assay, A549; assay type: cell-based; conditions: Homo sapiens, read-out: IC50 A549
Description: (§1) We tested the fourteen known aspidosperma-type alkaloids (1–14) against chemosensitive KB (originally isolated from epidermoid carcinoma of the nasopharynx) and P-gp over-expressing multidrug-resistant (MDR) KB subline KB-VIN, as well as three additional human cancer cell lines, A549 (lung carcinoma), MDA-MB-231 (triple negative breast cancer), and MCF-7 (estrogen receptor-positive breast cancer), using a sulforhodamine B (SRB) assay (Table 1).
(§2) Antiproliferative activity was determined by the sulforhodamine B (SRB) colorimetric assay as previously described. In brief, human tumor cell lines were cultured in RPMI-1640 medium containing 2 mM l-glutamine and 25 mM HEPES (Gibco), supplemented with 10% fetal bovine serum (Speciality Media), 100 µg/mL streptomycin, 100 IU/mL penicillin, and 0.25 µg/mL amphotericin B (Corning). MDR stock cells (KB-VIN) were maintained in the presence of 100 nM vincristine (VIN) (Sigma-Aldrich, Saint Louis, MI, USA).
(§3) Freshly trypsinized cell suspensions were seeded in 96-well microtiter plates at densities of 4000–11,000 cells per well (based on the cell lines) with compounds. After 72 h in culture with test compounds, cells were fixed in 10% trichloroacetic acid followed by staining with 0.04% sulforhodamine B (Sigma-Aldrich). The bound SRB was solubilized in 10 mM Tris-base and the absorbance at 515 nm was measured using a Microplate Reader (ELx800, Bio-Tek Instruments, Winooski, VT, USA) operated by Gen5 software (BioTek) after solubilizing the protein-bound dye with 10 mM Tris base. The mean IC50 is the concentration of agent that reduced cell growth by 50% compared with vehicle (DMSO) control under the experimental conditions and is the average from at least three independent experiments with duplicate samples.
(§4) The following human tumor cell lines were used in the assay: A549 (lung carcinoma), MDA-MB-231 (triplen-egative breast cancer), KB (originally isolated from epidermoid carcinoma of the nasopharynx), KB-VIN (VIN-resistant KB subline showing MDR phenotype by overexpressing P-gp), MCF-7 (estrogen receptor (ER)-positive, HER2-negative breast cancer). […] All cell lines were obtained from the Lineberger Comprehensive Cancer Center (UNC-CH) or from ATCC (Manassas, VA), except KB-VIN, which was a generous gift from Professor Y.-C. Cheng (Yale University). Paclitaxel was purchased from Sigma-Aldrich.

[2] = test system: MDA-MB-231 (triple negative breast cancer); assay: Antiproliferative SRB assay, MDA-MB-231; assay type: cell-based; conditions: Homo sapiens, read-out: IC50 MDA-MB-231
Description: as §1, §2, §3, §4

[3] = test system: KB (originally isolated from epidermoid carcinoma of the nasopharynx); assay: Antiproliferative SRB assay, KB; assay type: cell-based; conditions: Homo sapiens, 72 h, read-out: IC50 KB
Description: as §1, §2, §3, §4

[4] = test system: KB-VIN (VIN-resistant KB subline showing MDR phenotype by overexpressing P-gp); assay: Antiproliferative SRB assay, KB-VIN; conditions: for IC50: Homo sapiens, KBVIN, 72 h, read-out: IC50 KB-VIN; for fold higher concentration required against KB-VIN cells: KB-VIN compared with chemosensitive cells
Description: as §1, §2, §3, §4

[5] = test system: MCF-7 (estrogen receptor-positive breast cancer); assay: Antiproliferative SRB assay, MCF-7; assay type: cell-based; conditions: Homo sapiens, read-out: IC50 MCF-7
Description: as §1, §2, §3, §4

[6] = test system: A549, MDA-MB-231, KB, KB-VIN, and MCF-7; assay: Antiproliferative SRB assay, values stated across several cell lines; assay type: cell-based, human; conditions: for antiproliferative activity (in words): five human tumor cell lines including MDR subline KB-VIN
Description: as §1, §2, §3, §4

[7] = test system: KB-VIN cells; assay: Cell cycle analysis by flow cytometry (PI staining); assay type: cell-based, human; conditions: 24 h, 1 × IC50 or 3 × IC50
Description: KB-VIN cells were treated with compounds 3, 4, 6, 7, and 13 at their IC50 (1 × IC50) or three-fold IC50 (3 × IC50) concentration, and the cell cycle progression was analyzed by flow cytometer (Figure 2A).
(§5) Figure 2 Mitotic defects in KB-VIN cells treated by compounds. […] Cell cycle distributions (sub-G1, G1, S, G2/M) were analyzed using flow cytometry after staining cells with propidium iodide (PI). […] Fixed cells were stained with antibodies to α-tubulin (green) and phospho-histone H3 (pH3, red), and DAPI was used for DNA (blue). Stained cells were observed by confocal fluorescence microscope. The represented image is a projection of 15~20 optical sections acquired at 0.5~1 µm intervals. […] Bar, 0.025 mm. Additional images are available in Supplementary Figure S1.
KB-VIN cells were seeded in 12-well plates at a density of 1 × 10^5 per well and incubated overnight. […] The DNA contents of stained cells were analyzed by flow cytometer (LSRFortessa, BD Biosciences) controlled by FACSDiva software (BD Biosciences). Paclitaxel (PXL) was used at 3 or 6 µM. […] Experiments were repeated a minimum of two times.

[8] = test system: KB-VIN cells; assay: Immunofluorescence staining of α-tubulin, pH3 and DNA; assay type: cell-based, human; conditions: 24 h, 3 × IC50
Description: as §5
To determine whether the cell cycle arrest was due to an antimicrotubule effect, cells treated with compounds were analyzed by immunocytochemistry using antibodies to α-tubulin for microtubules and mitotic spindles, Ser10-phosphorylated histone H3 (pH3) for the condensed chromatins and 4′,6-diamidino-2-phenylindole (DAPI) for DNA. […] Thus, we concluded that these alkaloids are tubulin polymerization inhibitors.
Immunocytochemical analysis was performed as previously described. […] After treatment of cells with the agent for 24 h, cells were fixed with 4% paraformaldehyde in PBS and permeabilized with 0.5% Triton X-100 in PBS. Fixed cells were labeled with mouse monoclonal antibody to α-tubulin (B5-1-2, Sigma) and rabbit IgG to Ser10-phosphorylated histone H3 (p-H3) (#06570, EMD Millipore), followed by FITC-conjugated antibody to mouse IgG (Sigma) and Alexa Fluor 549-conjugated antibody to rabbit IgG (Life Technologies). Nuclei were labeled with DAPI (Sigma). Fluorescently-labeled cells were observed using a confocal microscope (Zeiss, LSM700) with ZEN (black edition) software (Zeiss). The 15~20 optical sections acquired at 0.5~1 µm intervals were stacked and reconstructed using ZEN (black edition) software. Experiments were repeated at least twice for each compound. Final images were prepared using Adobe Photoshop CS3.

[9] = five human tumor cell lines, read-out: IC50 range over the cell lines tested
[10] = A549, SRB assay, 72 h, positive controls, unit nM
[11] = MDA-MB-231, SRB assay, 72 h, positive controls, unit nM
[12] = SRB assay, positive controls, unit nM
[13] = MCF7, SRB assay, 72 h, positive controls, unit nM

| Structure (SMILES) | IC50 ([1]; A549, SRB assay, 72 h) | IC50 ([2]; MDA-MB-231, SRB assay, 72 h) | IC50 ([3]; SRB assay) | IC50 [4] | antiproliferative activity (in words) [6] | IC50 ([5]; MCF7, SRB assay, 72 h) | other results |
| --- | --- | --- | --- | --- | --- | --- | --- |
| CC[C@]12C=CCN3CC[C@]4(C(=C(C(=O)OC)C1)Nc1cc(OC)ccc14)[C@@H]32 [Compound 12, 11-methoxytabersonine] | 5200 ± 100 nM | 6800 ± 1100 nM | 5400 ± 400 nM | 5.8 ± 0.1 µM | exhibited antiproliferative activity against all cell lines |  | IC50 ([5]; MCF7, 72 h): 8200 ± 900 nM |
| COC(=O)C1=C2Nc3ccccc3C23CCN2CC=CC(C(C)OC(C)=O)(C1)C23 [Compound 11, 19-(R)-acetoxytabersonine] | > 40000 nM | > 40000 nM | 26500 ± 2500 nM | > 40 µM | essentially inactive | > 40000 nM | IC50 [6, 9]: > 26.5 µM |
| COC(=O)C1=C2Nc3cc(OC)ccc3C23CCN2CC=CC(C(C)OC(C)=O)(C1)C23 [Compound 14, 19-(R)-acetoxy-11-methoxytabersonine] | > 40000 nM | > 40000 nM | > 40000 nM | > 40 µM | essentially inactive | > 40000 nM |  |
| CC[C@]12C=CCN3CC[C@]4(C(=C(C(=O)OC)C1)Nc1ccccc14)[C@@H]32 [Compound 1, tabersonine] |  |  |  | 7.4 ± 0.3 µM | exhibited antiproliferative activity against all cell lines |  | IC50 ([1]; A549, 72 h): 6900 ± 100 nM; IC50 ([2]; MDA-MB-231, 72 h): 5900 nM; IC50 [3]: 5500 nM; IC50 ([5]; MCF7, 72 h): 7200 ± 400 nM |
| CC[C@@]12CC(C(=O)OC)=C3Nc4cc(OC)ccc4[C@@]34CCN(C[C@H]3O[C@H]31)[C@@H]24 [Compound 9, lochnerinine] | 800 nM | 6000 ± 800 nM | 900 nM | 0.7 µM | exhibited antiproliferative activity against all cell lines | 10200 ± 500 nM | fold rise in potency by a methoxy group at C-11 ([6]; 6 compared with 5, 9 compared with 8): ~ 60 fold; IC50 ([6]; Homo sapiens, A549, KB, KB-VIN, range stated for the group of compounds, read-out: IC50 values ranging over A549, KB and KB-VIN cells): 0.5 to 0.9 µM |
| CC[C@]12CCCN3CC[C@]4(C(=C(C(=O)OC)C1)Nc1ccccc14)[C@@H]32 [Compound 2, vincadifformine] | > 40000 nM | > 40000 nM | > 40000 nM | > 40 µM | essentially inactive | > 40000 nM |  |
| COC(=O)C1=C2Nc3ccccc3C23CCN2CC=CC(C(C)O)(C1)C23 [Compound 10, 19-(R)-hydroxytabersonine] | > 40000 nM | > 40000 nM | > 40000 nM | > 40 µM | essentially inactive | > 40000 nM |  |
| CC[C@@]12CC(C(=O)OC)=C3Nc4ccccc4[C@@]34CCN([C@H](CC(C)=O)[C@@H]3O[C@@H]31)[C@@H]24 [Compound 4, melodinine S] | 5600 nM | 8200 ± 800 nM | 5800 ± 300 nM | 6.3 ± 0.2 µM | exhibited antiproliferative activity against all cell lines; also recorded: significant antiproliferative effects against all five tumor cell lines | 10000 ± 900 nM | effect on cell cycle progression [7]: accumulation of cells in the G2/M phase; also recorded: cell cycle arrest at G2/M; microtubule / mitotic spindle morphology [8]: dotted tubulin aggregations without spindles; IC50 [6, 9]: 5.6 to 10 µM |
| CC[C@@]12CC(C(=O)OC)=C3Nc4ccccc4[C@@]34CCN(C[C@H]3O[C@H]31)[C@@H]24 [Compound 8, pachysiphine] | 27700 ± 100 nM | 34500 ± 200 nM | > 40000 nM | > 40 µM | essentially inactive | > 40000 nM |  |
| CC[C@]1(O)C[C@H]2CN(CCc3c([nH]c4ccccc34)[C@@](C(=O)OC)(c3cc4c(cc3OC)N(C=O)[C@H]3[C@@](O)(C(=O)OC)[C@H](OC(C)=O)[C@]5(CC)C=CCN6CC[C@]43[C@@H]65)C2)C1 [VIN, vincristine, reference compound] |  |  |  | 2.48 ± 0.0282 µM |  |  | IC50 [1, 10]: 22.9 ± 2.4 nM; IC50 [2, 11]: 32 ± 0.5 nM; IC50 [3, 12]: 4.4 ± 0.1 nM; fold higher concentration required against KB-VIN cells [4]: 600 fold; IC50 [5, 13]: 7.3 ± 0.2 nM; microtubule / mitotic spindle morphology [8]: with multipolar spindles |
| CC(=O)O[C@H]1C(=O)[C@@]2(C)[C@H]([C@H](OC(=O)c3ccccc3)[C@]3(O)C[C@H](OC(=O)[C@H](O)[C@@H](NC(=O)c4ccccc4)c4ccccc4)C(C)=C1C3(C)C)[C@]1(OC(C)=O)CO[C@@H]1C[C@@H]2O [PXL, paclitaxel, reference compound] |  |  |  | 2.36 ± 0.0595 µM |  |  | IC50 [1, 10]: 4.5 ± 0.9 nM; IC50 [2, 11]: 7 ± 0.9 nM; IC50 [3, 12]: 3.7 ± 1.1 nM; fold higher concentration required against KB-VIN cells [4]: 600 fold; IC50 [5, 13]: 8.8 ± 1 nM |
